Experimental findings from US4923963A, “Bradykinin antagonist peptides” (Nova Technology Limited Partnership, priority 1987, dated 1990) are described below.

The subject of one data set is isolated rat uterus. It counts as cell-based. Conditions: for pA2 /RUT: activity class: not quantitated. The protocol: The bradykinin antagonists were assayed on isolated rat uterus in natural or induced estrus and on guinea pig ileum, according to the commonly accepted assay methods for bradykinin and related kinins as described by Trautschold (Handbook of Expt. Pharmacol. Vol 25, Springer Verlag, pp. 53-55, 1970) for inhibition of the myotropic activity of bradykinin. The inhibition potencies, as determined according to the commonly accepted manner described by Schild for antagonists of biologically active compounds (Br. J. Pharmacol. 2:189, 1947), and expressed as pA2 values are determined on isolated rat uterus (RUT) and isolated guinea pig ileum (GPI). In the assays, a dose-response curve is determined for the reference substance bradykinin. The dose of bradykinin which produced a half maximal contraction of tissue is the ED50 dose. An amount of bradykinin equivalent to twice the ED50 dose is administered to the tissue 30 seconds after the start of incubation of the tissue with a dose of antagonist. Doses of antagonist are increased in this protocol until pre-incubation with a dose of antagonist reduces the contraction in response to the double ED50 dose of bradykinin to response of a single ED50 dose of bradykinin. The pA2 value represents the negative logarithm of the molar concentration of antagonist necessary to reduce the response of a double ED50 dose of bradykinin to that of an ED50 dose. One unit of pA2 value represents an order of magnitude change in potency. For comparison, the negative log of the dose of BK, the dose which causes half maximal contraction of the tissues, is commonly known as the pD2 value. The pD2 value for bradykinin is 7.9 on the rat uterus and 7.4 on the guinea pig ileum.

A further data set deals with rat blood pressure. The experiment in a line: effects on blood pressure in the anesthetized rat (RBP), intraaortic and intravenous bolus. The data set is classed as in vivo. Details: RBP-IA: activity class / RBP-IV: activity class: scale not given here. The protocol: The in vivo effects of bradykinin antagonists on blood pressure in the anesthetized rat are determined according to the assay described by Roblero, Ryan and Stewart (Res. Commun. Pathol. Pharmacol. 6:207, 1973). The antagonists also produce inhibition of the bradykinin response when injected as a bolus admixture of bradykinin plus antagonist by either the ia or iv route of administration.

The mark [1] stands for this setting: isolated rat uterus, number of tissues in parentheses.
Where [2] appears, read: rat blood pressure, intraaortic bolus.
Where [3] appears, read: rat blood pressure, intravenous bolus.

Read-outs that look alike come from different tables or passages of the source. Square brackets hold non-standard residues; d marks the D form. Peptide text beside a SMILES is read from it. dPhe(4-Cl) = N[C@H](Cc1ccc(Cl)cc1)C(=O)O; d2Nal = N[C@H](Cc1ccc2ccccc2c1)C(=O)O; Hyp = O=C(O)[C@@H]1C[C@@H](O)CN1; 2Thi = N[C@@H](Cc1cccs1)C(=O)O; d2Thi = N[C@H](Cc1cccs1)C(=O)O

With `N=C(N)NCCC[C@H](NC(=O)[C@H](Cc1ccccc1)NC(=O)[C@@H](Cc1ccccc1)NC(=O)[C@H](CO)NC(=O)[C@H](Cc1ccccc1)NC(=O)CNC(=O)[C@@H]1CCCN1C(=O)[C@@H]1CCCN1C(=O)[C@@H](N)CCCNC(=N)N)C(=O)O` [Example 1, Arg-Pro-Pro-Gly-Phe-Ser-DPhe-Phe-Arg] (H-RPPGFS[dF]FR-OH), in the data set on isolated rat uterus (setting [1]), the “pA2 /RUT (antagonist potency)” value is on record as 5.0. Turning to `N=C(N)NCCC[C@@H](N)C(=O)N[C@H](Cc1ccc(Cl)cc1)C(=O)N1CCC[C@H]1C(=O)N1CCC[C@H]1C(=O)NCC(=O)N[C@@H](Cc1ccccc1)C(=O)N[C@@H](CO)C(=O)N[C@H](Cc1cccs1)C(=O)N[C@@H](Cc1ccccc1)C(=O)N[C@@H](CCCNC(=N)N)C(=O)O` [Example 7, DArg-CDF-Pro-Pro-Gly-Phe-Ser-DThi-Phe-Arg] (H-[dR][dPhe(4-Cl)]PPGFS[d2Thi]FR-OH), the “RBP-IA: activity class” value in the data set on rat blood pressure (setting [2]) is 0. Also, the “RBP-IV: activity class” value in the data set with rat blood pressure (setting [3]) is on record as 0. Besides, the “pA2 /RUT: activity class” value with isolated rat uterus (isolated rat uterus) amounted to 0. Take `N=C(N)NCCC[C@H](NC(=O)[C@H](Cc1cccs1)NC(=O)[C@@H](Cc1ccccc1)NC(=O)[C@H](CO)NC(=O)[C@H](Cc1cccs1)NC(=O)CNC(=O)[C@@H]1CCCN1C(=O)[C@@H]1CCCN1C(=O)[C@H](N)Cc1ccc2ccccc2c1)C(=O)O` [Example 22, DNal-Pro-Pro-Gly-Thi-Ser-DPhe-Thi-Arg] (H-[d2Nal]PPG[2Thi]S[dF][2Thi]R-OH): in the data set on isolated rat uterus, the “pA2 /RUT (antagonist potency)” value stood at 5.6. For the molecule `N=C(N)NCCC[C@@H](N)C(=O)N[C@H](Cc1ccc2ccccc2c1)C(=O)N1CCC[C@H]1C(=O)N1CCC[C@H]1C(=O)NCC(=O)N[C@@H](Cc1cccs1)C(=O)N[C@@H](CO)C(=O)N[C@H](Cc1ccccc1)C(=O)N[C@@H](Cc1cccs1)C(=O)N[C@@H](CCCNC(=N)N)C(=O)O` [Example 23, DArg-DNal-Pro-Pro-Gly-Thi-Ser-DPhe-Thi-Arg] (H-[dR][d2Nal]PPG[2Thi]S[dF][2Thi]R-OH), the “pA2 /RUT (antagonist potency)” value in the data set on isolated rat uterus was found to be 5.8. As for `N=C(N)NCCC[C@H](NC(=O)[C@H](Cc1cccs1)NC(=O)[C@@H](Cc1ccccc1)NC(=O)[C@H](CO)NC(=O)[C@H](Cc1cccs1)NC(=O)CNC(=O)[C@@H]1CCCN1C(=O)[C@@H]1CCCN1C(=O)[C@@H](Cc1ccc2ccccc2c1)NC(=O)[C@H](N)Cc1ccc2ccccc2c1)C(=O)O` [Example 25, DNal-DNal-Pro-Pro-Gly-Thi-Ser-DPhe-Thi-Arg] (H-[d2Nal][d2Nal]PPG[2Thi]S[dF][2Thi]R-OH), the “pA2 /RUT (antagonist potency)” value with isolated rat uterus (setting [1]) is recorded as 5.6. With `N=C(N)NCCC[C@H](NC(=O)[C@H](Cc1ccccc1)NC(=O)[C@@H](Cc1cccs1)NC(=O)[C@H](CO)NC(=O)[C@H](Cc1ccccc1)NC(=O)CNC(=O)[C@@H]1C[C@@H](O)CN1C(=O)[C@@H]1CCCN1C(=O)[C@H](N)Cc1cccs1)C(=O)O` [Example 34, DThi Pro-Hyp-Gly-Phe-Ser-DThi-Phe-Arg] (H-[d2Thi]P[Hyp]GFS[d2Thi]FR-OH), in the data set with isolated rat uterus (isolated rat uterus), the “pA2 /RUT: activity class” value is given as 0. `N=C(N)NCCC[C@H](NC(=O)[C@H](CCCCN)NC(=O)[C@@H](N)CCCCN)C(=O)N1CCC[C@H]1C(=O)N1CCC[C@H]1C(=O)NCC(=O)N[C@@H](Cc1cccs1)C(=O)N[C@@H](CO)C(=O)N[C@H](Cc1ccccc1)C(=O)N[C@@H](Cc1cccs1)C(=O)N[C@H](CCCNC(=N)N)C(=O)O` [Example 44, Lys-Lys-Arg-Pro-Pro-Gly-Thi-Ser-DPhe-Thi-DArg] (H-KKRPPG[2Thi]S[dF][2Thi][dR]-OH): in the data set on rat blood pressure (rat, in vivo), the “% DESTR (metabolic breakdown of BK-like agonists in RBP assay)” value turned out to be 0% and the “RBP-IA: agonist potency as percent of BK potency” value came out at 0.2%. Also, the “RBP-IV: agonist potency as percent of BK potency” value with rat blood pressure (rat, in vivo, iv) is 14%. Regarding `N=C(N)NCCC[C@H](NC(=O)[C@H](Cc1cccs1)NC(=O)[C@@H](Cc1ccccc1)NC(=O)[C@H](CO)NC(=O)[C@H](Cc1cccs1)NC(=O)CNC(=O)[C@@H]1CCCN1C(=O)[C@@H]1CCCN1C(=O)[C@H](CCCNC(=N)N)NC(=O)[C@H](CCCCN)NC(=O)[C@@H](N)CCCCN)C(N)=O` [Example 54, Lys-Lys-Arg-Pro-Pro-Gly-Thi-Ser-DPhe-Thi-Arg-NH2] (H-KKRPPG[2Thi]S[dF][2Thi]R-NH2), the “pA2 /RUT: agonist potency as percent of BK potency” value (“pA2 /RUT … as percent of BK potency” for short) in the data set on isolated rat uterus is recorded as 0.02%. With `N=C(N)NCCC[C@@H](N)C(=O)N[C@@H](CCCNC(=N)N)C(=O)N1CCC[C@H]1C(=O)N1CCC[C@H]1C(=O)NCC(=O)N[C@@H](Cc1cccs1)C(=O)N[C@@H](CO)C(=O)N[C@H](Cc1ccccc1)C(=O)N[C@@H](Cc1cccs1)C(=O)N[C@H](CCCNC(=N)N)C(N)=O` [Example 57, DArg-Arg-Pro-Pro-Gly-Thi-Ser-DPhe-Thi-DArf-NH2] (H-[dR]RPPG[2Thi]S[dF][2Thi][dR]-NH2), the “pA2 /RUT … as percent of BK potency” value in the data set with isolated rat uterus (isolated rat uterus) is 0.003%. Still for that read-out and setting: to `CC[C@H](C)[C@H](NC(=O)[C@H](CCCNC(=N)N)NC(=O)[C@H](Cc1cccs1)NC(=O)[C@@H](Cc1ccccc1)NC(=O)[C@H](CO)NC(=O)[C@H](Cc1cccs1)NC(=O)CNC(=O)[C@@H]1C[C@@H](O)CN1C(=O)[C@@H]1CCCN1C(=O)[C@@H](N)CCCNC(=N)N)C(=O)N[C@@H](Cc1ccc(O)cc1)C(=O)O` [Example 67, Arg-Pro-Hyp-Gly-Thi-Ser-DPhe-Thi-Arg-Ile-Tyr] (H-RP[Hyp]G[2Thi]S[dF][2Thi]RIY-OH) belongs 0.06%.

For `CC[C@@H](C)[C@@H](NC(=O)[C@H](CCCNC(=N)N)NC(=O)[C@H](Cc1ccccc1)NC(=O)[C@@H](Cc1ccccc1)NC(=O)[C@H](CO)NC(=O)[C@H](Cc1ccccc1)NC(=O)CNC(=O)[C@@H]1CCCN1C(=O)[C@@H]1CCCN1C(=O)[C@@H](N)CCCNC(=N)N)C(=O)N[C@@H](Cc1ccc(O)cc1)C(=O)O` [Example 69, Arg-Pro-Pro-Gly-Phe-Ser-DPhe-Phe-Arg-DIle-Tyr] (H-RPPGFS[dF]FR[dI]Y-OH), in the data set on rat blood pressure (setting [2]), the “RBP-IA: agonist potency as percent of BK potency” value was 0.3%. The “RBP-IV: agonist potency as percent of BK potency” value in the data set with rat blood pressure (setting [3]) came out at 2%. Also, in the data set on rat blood pressure (relative to BK = 100%), the “% DESTR (metabolic breakdown of BK-like agonists in RBP assay)” value was 75%. On the same counts, the results for `CC[C@@H](C)[C@@H](NC(=O)[C@H](CCCNC(=N)N)NC(=O)[C@H](Cc1cccs1)NC(=O)[C@@H](Cc1ccccc1)NC(=O)[C@H](CO)NC(=O)[C@H](Cc1cccs1)NC(=O)CNC(=O)[C@@H]1CCCN1C(=O)[C@@H]1CCCN1C(=O)[C@@H](N)CCCNC(=N)N)C(=O)N[C@@H](Cc1ccc(O)cc1)C(=O)O` [Example 71, Arg-Pro-Pro-Gly-Thi-Ser-DPhe-Thi-Arg-DIle-Tyr] (H-RPPG[2Thi]S[dF][2Thi]R[dI]Y-OH) are 0.2%, 2% and 55%. Regarding `CC[C@@H](C)[C@@H](NC(=O)[C@H](CCCNC(=N)N)NC(=O)[C@H](Cc1cccs1)NC(=O)[C@@H](Cc1ccccc1)NC(=O)[C@H](CO)NC(=O)[C@H](Cc1cccs1)NC(=O)CNC(=O)[C@@H]1C[C@@H](O)CN1C(=O)[C@@H]1CCCN1C(=O)[C@@H](N)CCCNC(=N)N)C(=O)N[C@@H](Cc1ccc(O)cc1)C(=O)O` [Example 73, Arg-Pro-Hyp-Gly-Thi-Ser-DPhe-Thi-Arg-DIle-Tyr] (H-RP[Hyp]G[2Thi]S[dF][2Thi]R[dI]Y-OH), the “pA2 /RUT … as percent of BK potency” value with isolated rat uterus (isolated rat uterus) is 0.04%.
